Each structure is given as a SMILES string.

Holding throughout (format): in vivo
Assay [1] relates to DIO-NASH mice (C57Bl/6J male mice). Nature of the assay: Absolute and relative body weight, 8 weeks assay in DIO-NASH mice. The conditions noted are these: 50 mg/kg, p.o., b.i.d., statistics at day 54, vs DIO-NASH vehicle. How it is done:
The assay was carried out to evaluate the effect of the compounds of the invention on body weight of animals with non-alcoholic fat liver disease (DIO-NASH mice). For this assay, the effect of compound 4a in absolute and relative body weight was evaluated. DIO-NASH mice (C57Bl/6J male mice) were treated with a hydrochloride salt of compound 4a during 8 weeks (50 mg/kg, p.o., b.i.d.), versus a pathological control of DIO-NASH mice and a non-pathological control LEAN-CHOW mice, both treated with the vehicle (0.9% NaCl). The DIO-NASH mice group were put on high fat diet (40% AMLN diet, D09100301 Research Diets, USA) and a control group (LEAN-CHOW) was put on a regular chow diet (Altromin 1324, Brogaarden, Denmark) for 35 weeks prior to the study.
Body weight of for each of the groups taken on a daily basis. The animals were kept under the same conditions were used as in example 2.2.

The test system is the same in assay [2]. The assay is described as follows: Differential gene expression analysis by RNAseq in liver of DIO-NASH mice. How it is done: The effect of the compounds of the invention in the development of liver fibrosis was also studied by differential gene expression analysis by RNAseq where DIO-NASH mice (C57Bl/6J male mice) were treated with a hydrochloride salt of compound 4a during 8 weeks (50 mg/kg, p.o., b.i.d.), versus a pathological control of DIO-NASH mice and a non-pathological control LEAN-CHOW mice, both treated with the vehicle (0.9% NaCl).
The animals were kept and examined under the same conditions were used as in example 2.2. The liver biopsies were also carried out under the same conditions as in example 2.2. The DIO-NASH mice group were put on high fat diet (40% AMLN diet, D09100301 Research Diets, USA) and a control group (LEAN-CHOW) was put on a regular chow diet (Altromin 1324, Brogaarden, Denmark) for 35 weeks prior to the study.
FIGS. 12 and 13 show the effect of treatment of DIO-NASH mice with a hydrochloride salt of compound 4a versus a control DIO-NASH mice group treated with vehicle and a LEAN-CHOW […] control group also treated with vehicle, in the expression of collagen genes which are fibrosis markers: collagen type I-alpha 1 (COL1A1) and alpha 2 (COL1A2), collagen type III alpha 1 (COL3A1), collagen V alpha 1 (COL5A1), alpha 2 (COL5A2) and alpha 3 (COL5A3), collagen type VI alpha 1 (COL6A1), alpha 2 (COL6A2) and alpha 3 (COL6A3).
Results are given as expression level in RPKM for each mice group, wherein RPKM (Reads per kilo base per million mapped reads) is a method of quantifying gene expression from RNA sequencing data by normalizing for […] and the number of sequencing reads.
Date expressed as mean±s.e.m. values from 6 animals. ***P<0.001 vs. NASH vehicle.

For assay [3] the test system is unchanged. Nature of the assay: Liver inflammation: galectin-3 IHC staining in DIO-NASH mice. The note with it: 50 mg/kg, p.o., b.i.d., 8 weeks. How it is done: To assess the effect of the compounds of the invention in inflammation of liver in the treatment of non-alcoholic fat liver disease, liver galactin-3 (inflammation marker) levels were determined after a 8 weeks study where DIO-NASH mice (C57Bl/6J male mice) were treated with a hydrochloride salt of compound 4a during 8 weeks (50 mg/kg, p.o., b.i.d.), versus a pathological control of DIO-NASH mice and a non-pathological control LEAN-CHOW mice, both treated with the vehicle (0.9% NaCl).
Galectin-3 was measured via galtactin-3 IHC staining: galectin-3 (Biolegend, Cat. #125402) IHC were performed using standard procedures. Briefly, after antigen retrieval and blocking of endogenous peroxidase activity, slides were incubated with primary antibody. The primary antibody was detected using a linker secondary antibody followed by amplification using a polymeric HRP-linker antibody conjugate. Next, the primary antibody was visualized with DAB as chromogen. Finally, sections were counterstained in hematoxylin and cover-slipped.

For assay [4] the test system is unchanged. The assay is described as follows: Liver fibrosis: collagen type I (col1a1) IHC staining in DIO-NASH mice. The note with it: 50 mg/kg, p.o., b.i.d., 8 weeks. On the procedure:
To assess the effect of the compounds of the invention in fibrosis of liver in the treatment of non-alcoholic fat liver disease, the collagen type I (a fibrosis marker) in liver was measured after the 8 weeks of the study where DIO-NASH mice (C57Bl/6J male mice) were treated with a hydrochloride salt of compound 4a during 8 weeks (50 mg/kg, p.o., b.i.d.), versus a pathological control of DIO-NASH mice and a non-pathological control LEAN-CHOW mice, both treated with the vehicle (0.9% NaCl).
Type I collagen content was measured by IHC staining: Type I collagen (Southern Biotech, Cat. 1310-01) IHC was performed using standard procedures. Briefly, after antigen retrieval and blocking of endogenous peroxidase activity, liver slides were incubated with primary antibody. The primary antibody was detected using biotinylated secondary antibody and amplified using a vectastain-TSA-vectastain method a polymeric HRP-linker antibody conjugate. Next, the primary antibody was visualized with DAB as chromogen. Finally, sections were counterstained in hematoxylin and cover-slipped.

Assay [5] shares this test system. The assay is described as follows: Liver toxicity: plasma ALT and AST, 8 weeks assay in DIO-NASH mice. The conditions noted are these: 50 mg/kg, p.o., b.i.d., end of treatment, vs DIO-NASH vehicle. How it is done:
The assay was carried out to evaluate the effect of the compounds of the invention on liver toxicity for animals with non-alcoholic fat liver disease (DIO-NASH mice). For this assay, the effect of compound 4a in plasma Alanine Aminotransferase (ALT) and in plasma Aspartate Aminotransferase (AST) was evaluated. DIO-NASH mice (C57Bl/6J male mice) were treated with a hydrochloride salt of compound 4a during 8 weeks (50 mg/kg, p.o., b.i.d.), versus a pathological control of DIO-NASH mice and a non-pathological control LEAN-CHOW mice, both treated with the vehicle (0.9% NaCl). The animals were kept under the same conditions were used as in example 2.2. The DIO-NASH mice group were put on high fat diet (40% AMLN diet, D09100301 Research Diets, USA) and a control group (LEAN-CHOW) was put on a regular chow diet (Altromin 1324, Brogaarden, Denmark) for 35 weeks prior to the study.
To evaluate Alanine transaminase (ALT) and Aspartate transaminase (AST), blood samples were collected in heparinized tubes and plasma was separated and stored at −80° C. until analysis. ALT and AST were measured using commercial kits (Roche Diagnostics, Germany) on the Cobas™ C-501 autoanalyzer according to the manufacturer's instructions.

For `COc1ccc(-c2nc(C(=O)NCCN)cc3c2[nH]c2ccccc23)cc1` [Compound 4a, N(-ethylamine)-1-benzosubstituted-β-carboline-3-carboxamide], in assay [1], the absolute body weight entry is “reduced body weight” and the “relative body weight versus the body weight at the start of the treatment (day 0 is 100%)” value is “reduced relative body weight significantly”. Moreover, in assay [2] (50 mg p.o., b.i.d, 8 weeks), the “expression of CD36 (lipid metabolism)” value is “decreased expression”; the “expression of Casp7 and IL18 (hepatocellular cell death)” value is listed as “increased expression”; the “expression of GLUT4 (insulin signaling)” value is recorded as “increased expression”; the “expression of MAPK and AKT (insulin signaling)” value is listed as “decreased expression”. In addition, in assay [2] (50 mg p.o., b.i.d, 8 weeks), the “expression of SQLE (lipid metabolism)” value was “increased expression”; the “fibrosis genes related to stellate cell activation, such as Col1a1, Col3a1 and TIMP1” value is on record as “reduction”; the “inflammation markers related to monocyte recruitment, such as CD68, CCR2, MAC-2” value is “reduction”. For the same compound, the “TLR4, TGFB and TGFBR gene expression (inflammation signaling)” value in assay [2] (50 mg/kg, p.o., b.i.d., 8 weeks) is recorded as “reduction”. Also, the “expression of collagen genes (COL1A1, COL1A2, COL3A1, COL5A1, COL5A2, COL5A3, COL6A1, COL6A2, COL6A3)” value in assay [2] (50 mg/kg, p.o., b.i.d., 8 weeks, vs DIO-NASH vehicle, P<0.001) is given as “significantly reduced the expression of the collagen genes”. In addition, the “number of genes regulated” value in assay [2] (8 weeks treatment, RNAseq) is “more than 2000 genes”. Further, the “anti-galectin-3 staining, representative images of liver samples” value in assay [3] (end of study) was “visible change in this inflammation marker”. Besides, in assay [3] (vs DIO-NASH vehicle), the “total liver galectin-3 content determined by morphometry” value was “reduced total galectin-3 content”. Also, in assay [4] (end of study), the “anti-type I collagen (col1a1) staining, representative images of liver samples” value is “visible change in this fibrosis marker”. The “total content of liver collagen type 1 (col1a1) determined by morphometry” value in assay [4] (vs DIO-NASH vehicle) is listed as “reduced total liver col1a1”. In addition, in assay [5], the “plasma ALT” value was “reduced the plasma ALT levels” and the “plasma AST” value is “reduced the plasma AST levels”.

For the origin of these results see US10857136B2, “Compounds for use in the prevention and/or treatment of non-alcoholic fat liver disease and non-alcoholic steatohepatitis” (SJT MOLECULAR RESEARCH, SL, priority 2017, dated 2020).
